The values below come from US6455760B1, “Expression of flavin-containing monoxygenases in plants” (The Salk Institute of Biological Studies, priority 2000, dated 2002).

The structures appear in SMILES notation. Entries after “also recorded” stand apart in the source; their conditions may differ.

In one data set the test system is yucca mutant. Type of data set: in vivo, Arabidopsis thaliana.
Data set [1] deals with Arabidopsis WT and yucca mutants. Type of data set: in vivo, Arabidopsis thaliana. The following applies: for sensitivity of yucca mutants to tryptophan analogs: yucca mutants compared with normal toxicity to plants. The procedure: Enhanced expression of the YUCCA gene overproduces auxin. […] Massive root growth was observed when yucca explants grew in Murashige and Skoog (MS) media. Callus was induced by adding cytokinin, and young yucca plants that are regenerated in MS media containing cytokinin. A GUS reporter gene controlled by an auxin responsive element was expressed at much higher level in yucca. […] In addition, YUCCA appears to be involved in tryptophan-dependent auxin synthesis. […] In the presence of 100 μM 5-methyl tryptophan, WT plant material died while yucca survived.

For data set [2] the test system is unchanged. The experiment in a line: Auxin transport block by NPA in growth medium, club root development. Type of data set: in vivo, Arabidopsis thaliana. An excerpt:
It was also discovered that auxin transport in yucca was blocked by application of transport inhibitor naphthylthalamic acid (NPA), resulting in yucca mutants having a giant root, called a “club root” due to its thick, short appearance. This club root was substantially thicker than the regular yucca root, which is already thicker than the WT root. […] The club root produced by blocking auxin transport in yucca mutants may provide an important tool for studying root growth and development.

Data set [3] addresses T1, recombinant YUCCA gene product (SEQ ID NO. 2) (Arabidopsis thaliana, UniProt Q9SZY8).
T1 construct: 2, was recovered from the E. coli overexpression system; made in house; host or cells: E. coli (vector pMalC2)
T1 sequence (Q9SZY8 1-414): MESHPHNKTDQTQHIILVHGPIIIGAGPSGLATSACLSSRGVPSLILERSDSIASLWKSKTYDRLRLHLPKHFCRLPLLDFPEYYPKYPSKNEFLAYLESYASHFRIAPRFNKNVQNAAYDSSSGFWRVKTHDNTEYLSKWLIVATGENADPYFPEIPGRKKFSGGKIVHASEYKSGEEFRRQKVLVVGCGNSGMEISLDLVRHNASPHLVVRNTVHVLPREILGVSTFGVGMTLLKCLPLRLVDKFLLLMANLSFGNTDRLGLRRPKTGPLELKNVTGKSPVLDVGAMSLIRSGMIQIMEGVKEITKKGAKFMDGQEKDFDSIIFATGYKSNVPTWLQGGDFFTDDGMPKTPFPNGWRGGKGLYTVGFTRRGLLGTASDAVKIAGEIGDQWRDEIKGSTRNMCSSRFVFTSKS
Briefly: FMO activity assay of recombinant YUCCA gene product with tryptamine (TLC, mass spectroscopy). Format: biochemical. As to conditions: 2 mM tryptamine, 1 mM NADP+, glucose-6-phosphate, glucose-6-phosphate dehydrogenase, 37° C. An excerpt: Enzymatic activity of the YUCCA gene product. In one experiment, the YUCCA gene was transformed into an E. coli overexpression vector and the recombinant YUCCA gene product, a polypeptide having the amino acid sequence of SEQ ID NO. 2, was recovered from the E. coli overexpression system. […] Thus, the amino acid sequence of SEQ ID NO: 2 can be used to metabolize tryptamine, whether endogenous or exogenous, as well as to generate N-hydroxyl tryptamine.
Effect of YUCCA overexpression in E. coli on detectable FMO activity. To test the enzymatic activity of the YUCCA gene product, YUCCA (SEQ ID NO. 1) was transformed into an E. coli overexpression vector pMalC2 and the recombinant YUCCA gene product was recovered, using the method of Brunelle et al., (Drug Metab Dispos (1997) 25:1001). For activity assays, the recombinant YUCCA gene product was incubated with 2 mM tryptamine, 1 mM NADP^+, 1 mM glucose-6-phosphate, and glucose-6-phosphate dehydrogenase at 37° C. Reactions were stopped by adding an equal volume of methanol. Substrate and products were separated by thin-layer-chromatography (TLC) with CH2CL2/methanol/TEA (75:20:5). The product was eluted from TLC plates and mass spectroscopy was performed to determine the molecular mass of the product.

Consider `C=C` [Ethylene], for which the “effect on the yucca mutant” value in the data set on yucca mutant (ethylene treatment) is “little effect”. Regarding `NC1(C(=O)O)CC1` [ACC, 1-aminocyclopropane-1-carboxylate], in the data set with yucca mutant (5 μM), the “effect on yucca cotyledon” value is “did not change the appearance of the yucca cotyledon” and the “effect on yucca hypocotyl” value is on record as “suppressed the elongated yucca hypocotyl”.

Turning to `N[C@@H](Cc1c[nH]c2ccc(F)cc12)C(=O)O` [5-fluoro-tryptophan], in data set [1], the “sensitivity of yucca mutants to tryptophan analogs” value was “less sensitive”.

For `Cc1ccc2[nH]cc(C[C@H](N)C(=O)O)c2c1` [5-methyl tryptophan], in data set [1] (WT, in the presence of 100 μM), the “survival of WT plant material” value was “died”. Moreover, the survival of yucca result in data set [1] (yucca mutant, in the presence of 100 μM) is “survived”. Besides, the “sensitivity of yucca mutants to tryptophan analogs” value in data set [1] was “less sensitive”. With `O=C(O)c1ccccc1C(=O)Nc1cccc2ccccc12` [NPA, naphthylthalamic acid], in data set [2] (Wild type (WT) Arabidopsis), the “club root development in wild type” value was “did not develop a club root”. Further, the “club root development in yucca mutants” value in data set [2] (50 μM in the growth medium) was “multiple club roots”; in data set [2] (100 μM in the growth medium), “a single club root”.

`NCCc1c[nH]c2ccccc12` [tryptamine]: the “substrate conversion by recombinant YUCCA gene product” value in data set [3] was “able to convert tryptamine to N-hydroxyl tryptamine; also recorded: use tryptamine as a substrate to generate N-hydroxyl tryptamine”.
